Experimental findings from US9487561B2, “Biologically active complex and its preparation” (HAMLET PHARMA AB, priority 2010, dated 2016) are described below.

Entries after “also recorded” stand apart in the source; their conditions may differ.

In experiment [1] the test system is tumor cells. Nature of the experiment: ion fluxes (Ca^2+, K^+, Na^+) quantified by fluorometry. Format: cell-based. The note with it: for effect of inhibitor on HAMLET Ca^2+ fluxes: FIG. 1B. As to the method:
FIG. 1. […] (A, upper panels) Bright-field micrographs showing glass-adherent egg yolk vesicles before and after a 40-minute exposure to HAMLET, α-lactalbumin (HLA) or oleic acid (OA). Morphology was recorded by differential interference contrast microscopy. Scale bar […]. […] (A, lower panels) Effect of HAMLET on PMVs from lung carcinoma cells. PMVs on glass-bottom dishes were exposed to HAMLET, HLA or OA and stained with Nile red for confocal microscopy. […] As a control PMVs from healthy, differentiated cells on glass-bottom dishes were also exposed to HAMLET and stained with Nile red.
FIG. 7. Ion Fluxes. (A) Ion fluxes induced by HAMLET (35 μM) or it constituents (35 μM All-ala α-lactalbumin or 175 μM sodium oleate) were quantified by fluorometry, as described. […] (B) The global transcriptional response to HAMLET was studied by microarray and the top 3000 genes by variance visualized in a Heatmap. […] Darker bands=high expression, lighter bands=low.
The FLUXOR™ potassium (K^+) channel assay was performed on the TECAN infinite F200 (Tecan Group, Switzerland), according to the manufacturer's instructions (Invitrogen). Briefly, this involved FLUXOR™ loading buffer (Hank's Balanced Saline Solution, (HBSS) buffered with 20 mM HEPES and pH adjusted to 7.4 with NaOH. POWERLOAD™ concentrate and water-soluble Probenecid were used respectively to enhance the dye solubility and retention, respectively. Media were removed from the cell plates manually, and 80 μL of loading buffer containing the FLUXOR™ dye mix was applied to each well. Once inside the cell, the nonfluorescent AM ester form of the FLUXOR™ dye is cleaved by endogenous esterases into a thallium-sensitive indicator. The dye was loaded for 60 minutes at room temperature and then removed with the supernatant. After washing with dye-free PBS buffer, a final volume of 80 μL assay buffer containing water-soluble probenecid was added. Cells received one of the following channel inhibitors: 3.3 μL per well of 30 mM amiloride, 3.0 μL of 32 mM BaCl2, 1.8 μL of 5.4 mM gadolinium, 3 μL 3.2 mM tetrandrine and 2.3 μL of 2.6 mM ruthenium red, and were then incubated at room temperature (23-25° C.) for 30 minutes to allow equilibration of the test compounds. Prior to injection, stimulation buffer was prepared from the chloride-free buffer and thallium reagents provided in the kit as well as HAMLET, to achieve a final added concentrations of 2 mM free Tl+ and 35 μM HAMLET after 1:5 dilution upon injection of the stimulus buffer onto cells that had been loaded with FLUXOR™ dye.

In experiment [2] the test system is A549 lung carcinoma cells. Nature of the experiment: cell death assay (trypan blue exclusion, ATP levels). Format: cell-based, human. The note with it: for effect of channel inhibitor on HAMLET-induced cell death: 30 minutes pretreatment, HAMLET three hours; for tumoricidal effect (trypan blue exclusion, ATP): Example 2, 3 hours, molar concentrations based on stoichiometry in HAMLET, dose response. As to the method: Cells were detached from cell culture flasks with versen (0.2 g EDTA in 200 ml H2O and 800 ml PBS), washed with PBS and resuspended in serum-free RPMI-1640. HAMLET dissolved in PBS was incubated with cells (0.5×10^6/ml for A549, A498 and HeLa cells; 1×10^6/ml for Jurkat) at 37° C. FCS was added after 1 hour. Cell death was quantified by trypan blue exclusion (Chroma Gesellschaft Schmid & Co) or by measuring ATP levels (ATPlite Kit, PerkinElmer, Infinite 200, Tecan). Light images were captured using the HOLOMONITOR™ M2 digital holographic microscope (Phase Holographic Imaging AB, Lund, Sweden).
For studies with inhibitors, cells were pretreated for 30 minutes. Inhibitors used were Gadolinium chloride (GdCl3, 100 μM), Barium chloride (BaCl2, 1 mM), Ruthenium red (30 μM), tetrandrine (10 μM) and amiloride (1 mM), all from Sigma Aldrich. For p38 inhibition, SB202190 (20 μM, Sigma Aldrich) or BIRB796 (10 μM, Axon Medchem) dissolved in DMSO was used. The wells were washed twice with PBS and new medium with inhibitor was added. For RNA interference, FlexiTube siRNA Premixes against MAPK11 (SI00606053), MAPK14 (SI00300769) and All Star Negative Control siRNA (SI03650318) from Qiagen was used. A549 forward was transfected using 25 nM final siRNA concentration in 24-well plate. After 48 hours, knockdown was examined by Western blot (anti-p38, 1:1000, Cell Signaling) and RT-PCR (MAPK14, QT00079345, QIAGEN).
To examine if functional ion channels are important for the tumoricidal activity of HAMLET, A549 lung carcinoma cells in suspension were pretreated with the channel inhibitors for 30 minutes and exposed to increasing concentrations of HAMLET for three hours.
A549 cells were seeded to a density of 0.8-1.0×10^6 cells/well in RPMI without FCS. Different volumes of HAMLET/oleate and oleic acid solutions were added. The cells were incubated for 1 hour at 37° C. 5% CO2 for 1 hour before 50 μl of FCS (5% final concentration) were added to the wells. The cells were then further incubated for additional 2 hours before the viability were determined by trypan blue exclusion and ATP measurements.

Setting [3] is: 35 μM All-ala α-lactalbumin or 175 μM sodium oleate, FIG. 7A.

As for `[Ba+2].[Cl-].[Cl-]` [BaCl2, barium chloride], the “effect of inhibitor on HAMLET Ca^2+ fluxes” value in experiment [1] was “inhibited”. Further, the “effect of channel inhibitor on HAMLET-induced cell death” value in experiment [2] was “markedly reduced cell death”.
Turning to `NC(N)=NC(=O)c1nc(Cl)c(N)nc1N` [amiloride, 3,5-diamino-6-chloro-N-(diaminomethylene)pyrazine-2-carboxamide], the “effect of inhibitor on HAMLET Ca^2+ fluxes” value in experiment [1] is given as “inhibited”. Besides, the “effect of channel inhibitor on HAMLET-induced cell death” value in experiment [2] is given as “markedly reduced cell death”.
With `CCCCCCCC/C=C\CCCCCCCC(=O)[O-].[Na+]` [oleate, sodium oleate], in experiment [1] (setting [3]), the “K^+ fluxes” value was “triggered K^+ fluxes” and the “Na^+ or Ca^2+ fluxes” value is listed as “low”. Also, in experiment [2], the “tumoricidal effect (trypan blue exclusion, ATP)” value is given as “tumoricidal; also recorded: stronger than that of oleic acid”. Further, in experiment [2] (Example 2, dose response), the “concentration at which tumor cells were killed, relative to concentration in HAMLET” value was “three to five times higher than the concentration in HAMLET”. In addition, the “tumoricidal effect at concentrations corresponding to 15× that of HAMLET (35 μM)” value in experiment [2] (FIG. 7F, cell line not stated) was “not tumoricidal”.

B1: HAMLET (protein, UniProt P00709 20-142, looked up)
Alpha-lactalbumin: KQFTKCELSQLLKDIDGYGGIALPELICTMFHTSGYDTQAIVENNESTEYGLFQISNKLWCKSSQVPQSRNICDISCDKFLDDDITDDIMCAKKILDIKGIDYWLAHKALCTEKLEQWLCEKL
modifications: oleic acid complex
B1: the “tumoricidal effect (trypan blue exclusion, ATP)” value in experiment [2] is given as “kills tumor cells more efficiently than protein free oleate or oleic acid”. Moreover, the “lethal response (trypan blue exclusion, ATP levels)” value in experiment [2] (increasing concentrations, three hours, no inhibitors) is “rapid, dose-dependent lethal response”.
